Reference: patent publication US12435062B2, “Amide compounds and uses thereof” (HUTCHISON MEDIPHARMA LIMITED, priority 2020, dated 2025)

How the values were obtained:
Ba/F3^BCR-FMS-11 cells = test: Cell proliferation experiment (Ba/F3^BCR-FMS-11, cckit-8); assay type: cell-based, mouse; details: Mus musculus, Ba/F3^BCR-FMS-11 cell proliferation
Procedure, shortened: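 Ba/F3 cells stably expressing BCR-FMS, CSF-1R-dependent for growth, seeded at 5000/well in RPMI 1640 with 10% FBS and exposed to 8 compound concentrations for 72 h at 37 °C.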

[1] = target: CSF1R phosphorylation in THP-1 cells (Homo sapiens (Human), UniProt P07333); test: Detection of CSF1R phosphorylation activity at cell level (THP-1, M-CSF stimulated, ELISA); assay type: cell-based; details: p-CSF1R ELISA, compound 60 min, 300 ng/mL M-CSF 1 min
Sequence of CSF1R phosphorylation in THP-1 cells (P07333 20-972): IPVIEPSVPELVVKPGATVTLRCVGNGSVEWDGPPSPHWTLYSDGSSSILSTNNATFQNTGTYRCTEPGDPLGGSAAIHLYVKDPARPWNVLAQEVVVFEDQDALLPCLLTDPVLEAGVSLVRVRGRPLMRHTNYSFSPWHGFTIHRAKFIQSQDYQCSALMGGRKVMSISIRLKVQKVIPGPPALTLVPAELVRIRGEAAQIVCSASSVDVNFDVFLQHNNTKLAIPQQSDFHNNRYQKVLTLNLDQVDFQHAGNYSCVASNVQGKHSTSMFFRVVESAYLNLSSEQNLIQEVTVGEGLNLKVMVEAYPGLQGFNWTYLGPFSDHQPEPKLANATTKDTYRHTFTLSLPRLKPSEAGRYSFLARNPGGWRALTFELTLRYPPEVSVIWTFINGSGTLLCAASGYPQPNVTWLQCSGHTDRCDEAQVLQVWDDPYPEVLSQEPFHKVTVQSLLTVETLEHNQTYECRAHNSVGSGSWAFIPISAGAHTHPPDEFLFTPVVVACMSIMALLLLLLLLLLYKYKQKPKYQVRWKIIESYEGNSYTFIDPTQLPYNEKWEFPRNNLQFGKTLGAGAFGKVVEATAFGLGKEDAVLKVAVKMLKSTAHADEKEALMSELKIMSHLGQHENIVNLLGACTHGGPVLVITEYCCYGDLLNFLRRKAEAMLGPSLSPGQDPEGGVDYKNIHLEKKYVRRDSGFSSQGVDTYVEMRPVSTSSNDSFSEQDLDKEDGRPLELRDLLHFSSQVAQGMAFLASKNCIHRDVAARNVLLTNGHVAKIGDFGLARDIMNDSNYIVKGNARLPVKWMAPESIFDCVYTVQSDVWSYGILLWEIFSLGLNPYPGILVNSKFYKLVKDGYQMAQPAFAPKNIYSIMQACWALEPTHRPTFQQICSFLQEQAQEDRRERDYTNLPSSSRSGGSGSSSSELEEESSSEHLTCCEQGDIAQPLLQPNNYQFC
Procedure, shortened: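 THP-1 cells (5×10^4/well, RPMI 1640, 2% FBS) were pre-treated with compound for 60 min at 37 °C, then stimulated with 300 ng/mL M-CSF for 1 min and lysed. Phospho-CSF1R was read by sandwich ELISA (p-CSF1R capture, anti-phosphotyrosine-HRP detection, OD 450/570 nm). IC50 was fitted with cell-free wells as background.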

[2] = target: Recombinant human CSF1R kinase (Homo sapiens (Human), UniProt P07333); assay type: biochemical; details: Z-LYTE Tyr 1 peptide substrate
Sequence of Recombinant human CSF1R kinase (P07333 20-972): as above

IC50 (Ba/F3^BCR-FMS-11 cells; 72 h) [nM] | IC50 [1] [nM] | IC50 [2] [nM] | SMILES | IC50 (Ba/F3^BCR-FMS-11 cells; 72 hours) [nM]
14 | 16 | 8 | CC(C)n1cccc(C(=O)Nc2ccc(Oc3ccnc(-c4cnn(CCO)c4)c3)cn2)c1=O [Compound 95, N-(5-((2-(1-(2-hydroxyethyl)-1H-pyrazol-4-yl)pyridin-4-yl)oxy)pyridin-2-yl)-1-isopropyl-2-oxo-1,2-dihydropyridine-3-carboxamide] | 
10 | 8 | 8 | CC(C)n1cccc(C(=O)Nc2ccc(Oc3ccnc(Nc4cnn(C)c4)c3)cn2)c1=O [Compound 96, 1-isopropyl-N-(5-((2-((1-methyl-1H-pyrazol-4-yl)amino)pyridin-4-yl)oxy)pyridin-2-yl)-2-oxo-1,2-dihydropyridine-3-carboxamide] | 
15 | 7 | 18 | Cn1cc(Nc2cc(Oc3ccc(NC(=O)c4cccn(C)c4=O)nc3)ccn2)cn1 [Compound 97] | 
534 | 748 | 70 | Cn1ncc(-c2cc(Oc3ccc(NC(=O)c4cccn(C)c4=O)nc3)ccn2)n1 [Compound 99, 1-methyl-N-(5-((2-(2-methyl-2H-1,2,3-triazol-4-yl)pyridin-4-yl)oxy)pyridin-2-yl)-2-oxo-1,2-dihydropyridine-3-carboxamide] | 
15 | 15 | 8 | CC(C)n1cccc(C(=O)Nc2ccc(Oc3ccnc(-c4cn(C)cn4)c3)cn2)c1=O [Compound 100] | 
31 | 22 | 7 | Cc1ccc(-c2cc(Oc3ccc(NC(=O)c4cccn(C(C)C)c4=O)nc3)ccn2)cn1 [Compound 101] | 
151 | 132 | 36 | CC(C)n1cccc(C(=O)Nc2ccc(Oc3ccnc(-c4nccn4C)c3)cn2)c1=O [Compound 102] | 
9 | 7 | 6 | CC(C)n1cccc(C(=O)Nc2ccc(Oc3ccnc(-c4cn(C)nn4)c3)cn2)c1=O [Compound 103] | 
6 | 14 | 5 | Cn1cc(-c2cc(Oc3ccc(NC(=O)c4cccn(C5CC5)c4=O)nc3)ccn2)cn1 [Compound 104, 1-cyclopropyl-N-(5-((2-(1-methyl-1H-pyrazol-4-yl)pyridin-4-yl)oxy)pyridin-2-yl)-2-oxo-1,2-dihydropyridine-3-carboxamide] | 
84 | 69 | 9 | Cn1cc(-c2cc(Oc3ccc(NC(=O)c4ccc(N)n(C)c4=O)nc3)ccn2)cn1 [Compound 105, 6-amino-1-methyl-N-(5-((2-(1-methyl-1H-pyrazol-4-yl)pyridin-4-yl)oxy)pyridin-2-yl)-2-oxo-1,2-dihydropyridine-3-carboxamide] | 
7 | 10 | 7 | CNc1ccc(C(=O)Nc2ccc(Oc3ccnc(-c4cnn(C)c4)c3)cn2)c(=O)n1C [Compound 106, 1-methyl-N-(5-((2-(1-methyl-1H-pyrazol-4-yl)pyridin-4-yl)oxy)pyridin-2-yl)-6-(methylamino)-2-oxo-1,2-dihydropyridine-3-carboxamide] | 
35 | 17 | 9 | Cn1cnc(-c2cc(Oc3ccc(NC(=O)c4cccn(C)c4=O)nc3)ccn2)c1 [Compound 107, 1-methyl-N-(5-((2-(1-methyl-1H-imidazol-4-yl)pyridin-4-yl)oxy)pyridin-2-yl)-2-oxo-1,2-dihydropyridine-3-carboxamide] | 
12 | 24 | 11 | CC(C)n1cccc(C(=O)Nc2ncc(Oc3ccnc(-c4cnn(C)c4)c3)cc2F)c1=O [Compound 108] | 
8 | 10 | 19 | Cc1cc(Nc2cc(Oc3ccc(NC(=O)c4cnc(C)n(C)c4=O)nc3)ccn2)n[nH]1 [Compound 111, 1,2-dimethyl-N-(5-((2-((5-methyl-1H-pyrazol-3-yl)amino)pyridin-4-yl)oxy)pyridin-2-yl)-6-oxo-1,6-dihydropyrimidine-5-carboxamide] | 
22 | 10 | 19 | Cc1cc(Nc2cc(Oc3ccc(NC(=O)c4cccn(C)c4=O)nc3)ccn2)n[nH]1 [Compound 112] | 
48 | 17 | 34 | Cc1ncc(C(=O)Nc2ccc(Oc3ccnc(-c4cnn(CCO)c4)c3)cn2)c(=O)n1C [Compound 113, N-(5-((2-(1-(2-hydroxyethyl)-1H-pyrazol-4-yl)pyridin-4-yl)oxy)pyridin-2-yl)-1,2-dimethyl-6-oxo-1,6-dihydropyrimidine-5-carboxamide] | 
79 | 35 | 42 | Cc1ncc(-c2cc(Oc3ccc(NC(=O)c4cccn(C)c4=O)nc3)ccn2)s1 [Compound 114] | 
38 | 22 | 46 | Cc1ccc(-c2cc(Oc3ccc(NC(=O)c4cccn(C)c4=O)nc3)ccn2)cn1 [Compound 115] | 
201 | 21 | 105 | Cc1ncc(C(=O)Nc2ccc(Oc3ccnc(-c4cccs4)c3)cn2)c(=O)n1C [Compound 116] | 
9 | 8 | 7 | Cc1ncc(C(=O)Nc2ccc(Oc3ccnc(-c4ccn(C)c4)c3)cn2)c(=O)n1C [Compound 117, 1,2-dimethyl-N-(5-((2-(1-methyl-1H-pyrrol-3-yl)pyridin-4-yl)oxy)pyridin-2-yl)-6-oxo-1,6-dihydropyrimidine-5-carboxamide] | 
6 | 21 | 19 | Cc1cc(C(=O)Nc2ccc(Oc3ccnc(-c4cnn(C)c4)c3)cn2)c(=O)n(C)c1 [Compound 118] | 
39 | 21 | 52 | Cc1nc(-c2cc(Oc3ccc(NC(=O)c4cnc(C)n(C)c4=O)nc3)ccn2)cs1 [Compound 120] | 
25 | 16 | 19 | Cc1ncc(C(=O)Nc2ccc(Cc3ccnc(-c4cnn(C)c4)c3)cn2)c(=O)n1C [Compound 123, 1,2-dimethyl-N-(5-((2-(1-methyl-1H-pyrazol-4-yl)pyridin-4-yl)methyl)pyridin-2-yl)-6-oxo-1,6-dihydropyrimidine-5-carboxamide] | 
11 | 19 | 16 | Cc1cc(C(=O)Nc2ccc(Oc3ccnc(-c4ccn(C)c4)c3)cn2)c(=O)n(C)c1 [Compound 124] | 
17 | 24 | 7 | CC(C)n1cccc(C(=O)Nc2ccc(Oc3ccnc(-c4ccn(C)c4)c3)cn2)c1=O [Compound 125] | 
28 | 30 | 25 | CC(C)n1nccc(C(=O)Nc2ccc(Oc3ccnc(-c4ccn(C)c4)c3)cn2)c1=O [Compound 126] | 
15 | 7 | 21 | Cc1ncc(C(=O)Nc2ccc(Oc3ccnc(-c4cn[nH]c4)c3)cn2)c(=O)n1C [Compound 130, N-(5-((2-(1H-pyrazol-4-yl)pyridin-4-yl)oxy)pyridin-2-yl)-1,2-dimethyl-6-oxo-1,6-dihydropyrimidine-5-carboxamide] | 
396 | 56 | 76 | Cc1ncc(C(=O)Nc2ccc(Oc3ccnc(-c4cnn(C)c4)c3)cn2)c(=O)[nH]1 [Compound 131, 2-methyl-N-(5-((2-(1-methyl-1H-pyrazol-4-yl)pyridin-4-yl)oxy)pyridin-2-yl)-6-oxo-1,6-dihydropyrimidine-5-carboxamide] | 
1190 | 2110 | 198 | Cn1cc(-c2cc(Oc3ccc(NC(=O)c4cnc(CCO)[nH]c4=O)nc3)ccn2)cn1 [Compound 132, 2-(2-hydroxyethyl)-N-(5-((2-(1-methyl-1H-pyrazol-4-yl)pyridin-4-yl)oxy)pyridin-2-yl)-6-oxo-1,6-dihydropyrimidine-5-carboxamide] | 
> 3300 | > 3000 | 548 | Cn1cc(-c2cc(Oc3ccc(NC(=O)c4cnc(CO)[nH]c4=O)nc3)ccn2)cn1 [Compound 133, 2-(hydroxymethyl)-N-(5-((2-(1-methyl-1H-pyrazol-4-yl)pyridin-4-yl)oxy)pyridin-2-yl)-6-oxo-1,6-dihydropyrimidine-5-carboxamide] | 

SMILES | IC50 (Ba/F3^BCR-FMS-11 cells; 72 h) [nM] | IC50 [1] [nM] | IC50 [2] [nM] | IC50 (Ba/F3^BCR-FMS-11 cells; 72 hours) [nM]
[2H]C([2H])([2H])n1c(C)ncc(C(=O)Nc2ccc(Oc3ccnc(-c4cnn(C)c4)c3)cn2)c1=O [Compound 128, 2-methyl-1-(methyl-d3)-N-(5-((2-(1-methyl-1H-pyrazol-4-yl)pyridin-4-yl)oxy)pyridin-2-yl)-6-oxo-1,6-dihydropyrimidine-5-carboxamide] |  | 6 | 5 | 2
[2H]C([2H])([2H])n1cc(-c2cc(Oc3ccc(NC(=O)c4cnc(C)n(C)c4=O)nc3)ccn2)cn1 [Compound 129, 1,2-dimethyl-N-(5-((2-(1-(methyl-d3)-1H-pyrazol-4-yl)pyridin-4-yl)oxy)pyridin-2-yl)-6-oxo-1,6-dihydropyrimidine-5-carboxamide] |  | 7 | 4 | 2
